From patent US20230212129A1, “QUINAZOLINE DERIVATIVES USEFUL AS SELECTIVE HDAC6 INHIBITORS” (AnnJi Pharmaceutical Co., Ltd., priority 2020, published 2023)

Experiments:
HDAC1 = molecular target: T1, HDAC1 (Homo sapiens, UniProt Q13547); test: HDAC1 activity, acetylated-AMC-labeled peptide substrate; format: biochemical
T1 construct: GST (C); host or cells: baculovirus expression system, Sf9 insect cells (SP9 [sic])
Method: (§1) The activities of HDAC 1 and 6 were measured by using an acetylated-AMC-labeled peptide substrate, a fluorogenic peptide from p53 residues 379-382 (RHIKKAc). The proteins involved in the assay are as the followings (1) Human HIDAC1 (Genflank Accession No. NM_004964): Full length with C-terminal GST tag, MW=79.9 kDa, expressed by baculovirus expression system in SP9 cells; and (2) Human HIDAC6 (Genflank Accession No. BC069243): Full length with N-terminal GST tag, MW=159 kDa, expressed by baculovirus expression system in Sf9 cells.

Rat DRG cells = test: Cisplatin-induced neurite degeneration in DRG cells; format: cell-based; conditions: 0.3 μM with 0.5 mM cisplatin, 48 hours; p<0.05; FIG. 3
Method: Rat DRG cells were used to investigate the protective effect of HDAC6 inhibitors. DRG cells were treated with 0.5 mM of cisplatin with or without 0.3 μM of COMPOUND 2 or ACY1215 for 48 hours. The neurite area and the number of blebs (cell apoptosis) per image were calculated and their ratio values among the tested groups were compared and shown in FIG. 3.

[1] = tested on: dorsal root ganglion (DRG) cells; test: DRG neurite outgrowth after paclitaxel-induced damage; format: cell-based, C57BL/6J mice; conditions: 0.1 μM and 1 μM, 24 hours prior to 24-hour 0.1 μM paclitaxel; FIG. 1
Method: (§2) To investigate the effect of HDAC6 inhibitors in neuron protection and neuron regeneration, the recovery of dorsal root ganglion (DRG) cells post-paclitaxel injury was tested. Dorsal root ganglion was extracted from 7 week-old female C57BL/6J mice and incubated with HDAC6 inhibitors (compounds COMPOUND 33, COMPOUND 34, or COMPOUND 2) at the concentrations of 0.1 μM and 1 μM, or 100 ng/ml of BDNF, a neuronal growth factor (positive control), for 24 hours prior to a 24-hour incubation of 0.1 μM paclitaxel.
The neurite was stained by pIII-tubulin.

HDAC6 = molecular target: T2, HDAC6 (Homo sapiens, UniProt Q9UBN7); test: HDAC6 activity, acetylated-AMC-labeled peptide substrate; format: biochemical
T2 construct: GST (N); host or cells: baculovirus expression system, Sf9 insect cells
T2 sequence (Q9UBN7 1-1215): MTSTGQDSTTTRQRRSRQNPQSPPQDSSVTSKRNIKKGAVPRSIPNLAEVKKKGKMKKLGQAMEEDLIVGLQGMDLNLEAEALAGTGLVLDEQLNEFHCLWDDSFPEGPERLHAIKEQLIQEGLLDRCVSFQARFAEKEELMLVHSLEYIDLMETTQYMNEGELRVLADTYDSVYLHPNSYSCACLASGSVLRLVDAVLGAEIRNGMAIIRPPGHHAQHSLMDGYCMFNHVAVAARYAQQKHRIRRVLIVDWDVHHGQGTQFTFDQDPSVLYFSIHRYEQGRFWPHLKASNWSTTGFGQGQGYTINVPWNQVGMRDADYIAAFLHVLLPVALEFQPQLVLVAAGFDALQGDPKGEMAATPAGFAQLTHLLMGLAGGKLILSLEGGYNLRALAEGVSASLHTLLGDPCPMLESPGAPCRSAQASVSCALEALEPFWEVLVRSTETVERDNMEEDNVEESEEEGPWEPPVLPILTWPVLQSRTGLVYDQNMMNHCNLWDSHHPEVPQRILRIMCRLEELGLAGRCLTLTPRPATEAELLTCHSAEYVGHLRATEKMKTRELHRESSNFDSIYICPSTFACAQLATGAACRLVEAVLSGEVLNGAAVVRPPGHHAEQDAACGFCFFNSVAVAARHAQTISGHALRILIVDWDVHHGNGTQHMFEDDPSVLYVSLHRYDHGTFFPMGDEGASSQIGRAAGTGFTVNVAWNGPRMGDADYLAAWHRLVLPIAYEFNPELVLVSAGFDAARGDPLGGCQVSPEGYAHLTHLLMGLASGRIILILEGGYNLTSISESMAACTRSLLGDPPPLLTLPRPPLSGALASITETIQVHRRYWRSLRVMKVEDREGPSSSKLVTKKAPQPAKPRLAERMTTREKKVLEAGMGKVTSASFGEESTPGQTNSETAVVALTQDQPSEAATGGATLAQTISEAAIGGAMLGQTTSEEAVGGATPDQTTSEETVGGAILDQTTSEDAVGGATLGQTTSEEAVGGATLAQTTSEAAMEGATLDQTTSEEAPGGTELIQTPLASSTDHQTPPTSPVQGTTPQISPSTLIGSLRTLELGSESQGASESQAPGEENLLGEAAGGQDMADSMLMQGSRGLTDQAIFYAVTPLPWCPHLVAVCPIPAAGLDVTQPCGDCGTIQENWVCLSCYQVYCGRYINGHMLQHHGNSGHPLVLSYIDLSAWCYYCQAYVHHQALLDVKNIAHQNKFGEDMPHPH
Method: as §1

[2] = tested on: acetylated α-tubulin (Ac-α-tub); test: Western blot of acetylated α-tubulin in primary DRG cells; format: cell-based, C57BL/6J mice; conditions: 48 hours of treatment, FIG. 2
Method: as §2

[3] = tested on: cisplatin-induced neuropathy; test: Cisplatin-induced neuropathy, von Frey paw-withdrawal murine model; format: in vivo, Balb/c mice; conditions: oral once daily Day 16 to 29 (pregabalin 15 mg/kg one hour prior to test); vs cisplatin control; FIG. 4
Method: To understand whether COMPOUND 2 exerts neuron protective activities in cisplatin-induced neuropathy, a paw-withdrawal murine model is deployed. The 50% paw withdrawal threshold (PWT) to a static mechanical stimulus was assessed using von Frey filament and up-and-down method following the procedure described by Chaplan (1994). Mechanical allodynia, a painful sensation caused by innocuous stimuli like light touch, was assessed by the manual von Frey test once per week (on day 7, 14, 21, 28, […], and 42). The animals indicated sensation by pulling back its paw. The minimum force leading to withdrawal of the paw was regarded as the reflex threshold.
Balb/c mice weighing about 25±2 gram were given cisplatin intraperitoneally at the dose of 1.5 mg/kg for 5 consecutive days (cumulative dose of 7.5 mg/kg), followed by 5 days of recovery. The cisplatin administration cycle was repeated once more to reach a cumulative dose of 15 mg/kg to induce neuropathy. Test compounds, COMPOUND 2 and ACY1215, were orally administered once daily for 2 weeks (except for the weekends) from Day 16 to 29. Pregabalin, a drug known to provide transient pain relief, was administered at a dose of 15 mg/kg prior to each von Frey stimulus test to serve as the positive control.

T1 sequence (Q13547 whole entry): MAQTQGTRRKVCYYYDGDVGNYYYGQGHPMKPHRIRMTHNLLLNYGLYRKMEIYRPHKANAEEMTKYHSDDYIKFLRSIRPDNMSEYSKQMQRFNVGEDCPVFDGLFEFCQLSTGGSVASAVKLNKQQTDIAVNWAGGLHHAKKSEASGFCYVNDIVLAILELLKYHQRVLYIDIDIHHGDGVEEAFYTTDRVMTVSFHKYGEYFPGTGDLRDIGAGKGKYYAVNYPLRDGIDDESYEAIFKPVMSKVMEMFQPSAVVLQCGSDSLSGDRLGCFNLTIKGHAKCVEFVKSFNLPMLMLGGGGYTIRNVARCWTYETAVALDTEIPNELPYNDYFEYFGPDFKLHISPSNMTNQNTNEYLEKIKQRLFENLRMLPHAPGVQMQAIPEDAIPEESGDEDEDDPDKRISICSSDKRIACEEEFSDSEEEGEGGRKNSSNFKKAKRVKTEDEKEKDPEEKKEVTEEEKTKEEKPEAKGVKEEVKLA

For `CCc1nc2cc(F)c(/C=C/C(=O)NO)cc2c(=O)n1-c1c(C)cccc1C` [Compound 2, (E)-3-(3-(2,6-dimethylphenyl)-2-ethyl-7-fluoro-4-oxo-3,4-dihydroquinazolin-6-yl)-N-hydroxyacrylamide], the IC50 (HDAC1) was 5170 nM, the “neurite degeneration (neurite area and number of blebs ratio)” value (Rat DRG cells) was “significantly lesser degree of neurite degeneration” and the neurite outgrowth [1] was “significantly rescued the neurite outgrowth”. For the same molecule, the “HDAC6 selectivity (A)/(B)” value (HDAC6; HDAC1 IC50 / HDAC6 IC50) was 2585, the IC50 (HDAC6; read-out: HDAC6 IC50 (B)) was 2 nM and the tubulin hyperacetylation [2] was “tubulin hyperacetylation”. The “mean withdrawal threshold (50% PWT)” value [3] was “significantly increased the mean withdrawal threshold”.
